Test results: PMC10673995, “Discovery of a novel cardiac-specific myosin modulator using artificial intelligence-based virtual screening” (Nature Communications, 2023)
“And” between values parts separate entries of the source, which are not always exact repeats. Equal entries are not always repeated.

Key:
[1] = target: T1, synthetic thick filaments formed from purified full-length bovine β-cardiac myosin (Bos taurus, UniProt Q9BE39); experiment: mant-ATP chase single nucleotide turnover, synthetic thick filaments; type: biochemical; details: for Representative Traces (mant-ATP chase, fluorescence signal over time): Figure 3b
T1 construct: diluting full-length bovine cardiac myosin stock into assay buffer; from tissue; host or cells: bovine cardiac muscle (the text says isolated/purified and describes no preparation)
Description: We used systems of increasing complexity ranging from the isolated cardiac myosin motor domains (Fig. 3a) to synthetic thick filaments formed from purified full-length bovine cardiac myosin (Fig. 3b) and bovine cardiac myofibrils as substrates in the chase assays (Fig. 3c). In contrast to the isolated myosin motors, synthetic thick filaments contain two myosin head domains per molecule connected via their coiled-coil tail.
Synthetic thick filaments were freshly prepared by diluting full-length bovine cardiac myosin stock into assay buffer (composition in mmol L^−1: 15 PIPES pH 7, 5 MgCl2, 1 DTT) and incubation on ice for 2 h. Bovine myosin S1 and synthetic thick filament concentrations were adjusted to 0.4 μmol L^−1 with assay buffer and 40 μL aliquoted into individual wells of a black 384-well plate (Greiner). Mant-ATP (JenaBioscience) was added to each well to a final concentration of 0.4 μmol L^−1 using an automated injector unit in a ClarioStar Plate Reader (BMG LabTech) and the system was allowed to age for 1 min. The chase phase was started by adding a final concentration of 2 mmol L^−1 ATP using a second automated injector unit. Fluorescence intensity from each well was constantly measured for 15 min every 1 sec at 25 °C with the following settings: excitation at 360 nm with a 20 nm bandwidth and emission at 450 nm with a 20 nm bandwidth. For experiments with cardiac myofibrils the concentration was adjusted to 1 mg m L^−1, and the mant-ATP and ATP concentrations were increased to 20 μmol L^−1 and 20 mmol L^−1, respectively.

[2] = tested on: cyclic GMP-AMP synthase; parameters: method as in PubChem; details: ref PubChem; cited from earlier work
[3] = tested on: phospholipid biosynthesis in mammalian cells; parameters: method as in PubChem; details: ref PubChem; cited from earlier work
[4] = target: bovine cardiac myosin S1 (Bos taurus, UniProt Q9BE39); experiment: mant-ATP chase single nucleotide turnover, myosin S1; details: for Representative Traces (mant-ATP chase, normalised signal): representative trace, sheet Figure 3a;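 for all read-outs here: 0.4 µM S1 preloaded with equimolar mant-ATP, chased by 2 mM ATP, mant fluorescence (ex 360, em 450 nm) read each second over 15 min at 25 °C, biexponential fit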
Description: Chase of mant-ATP loaded cardiac myosin S1 with ATP leads to a decrease in the mant fluorescence intensity which is best described by a bi-exponential decay function with an initial fast phase followed by a second slower phase, corresponding to the so-called disordered (DRX) and super-relaxed state (SRX) of myosin, respectively.

[5] = target: bovine cardiac myofibrils (CMF) (Bos taurus, UniProt Q9BE39); experiment: Bovine cardiac myofibrillar ATPase dose-response (F10 and derivatives)
Description: Steady-state myofibrillar ATPase activity was measured using an identical protocol as described above but in myofibril assay buffer (composition in mmol L^−1: 20 MOPS pH 7, 50 KCl, 0.1 CaCl2, 1 DTT) with a final bovine CMF concentration of 1 mg mL^−1.

[6] = Synthetic Myosin Filaments, individual replicates
[7] = Beta-cardiac myosin S1, individual replicates

Chain of bovine cardiac myosin S1 (Q9BE39 85-778 limits assumed): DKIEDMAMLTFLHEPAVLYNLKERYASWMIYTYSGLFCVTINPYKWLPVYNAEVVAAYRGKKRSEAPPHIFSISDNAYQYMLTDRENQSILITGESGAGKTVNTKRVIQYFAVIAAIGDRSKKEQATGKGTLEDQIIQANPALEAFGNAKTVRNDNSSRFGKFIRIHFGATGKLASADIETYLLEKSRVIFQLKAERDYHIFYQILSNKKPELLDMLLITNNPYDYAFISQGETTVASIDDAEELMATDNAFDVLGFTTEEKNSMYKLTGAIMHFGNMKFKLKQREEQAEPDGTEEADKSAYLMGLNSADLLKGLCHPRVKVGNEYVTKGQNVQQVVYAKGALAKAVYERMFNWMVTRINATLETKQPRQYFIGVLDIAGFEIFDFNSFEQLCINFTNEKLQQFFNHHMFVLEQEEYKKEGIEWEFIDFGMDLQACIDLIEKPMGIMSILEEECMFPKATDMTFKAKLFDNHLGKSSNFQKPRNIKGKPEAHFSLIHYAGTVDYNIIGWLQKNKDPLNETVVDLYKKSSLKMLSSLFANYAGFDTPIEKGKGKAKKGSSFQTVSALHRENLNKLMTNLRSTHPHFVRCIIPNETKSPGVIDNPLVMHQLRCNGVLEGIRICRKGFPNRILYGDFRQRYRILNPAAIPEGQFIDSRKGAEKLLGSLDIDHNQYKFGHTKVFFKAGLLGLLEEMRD
Chain of bovine cardiac myosin S1 (P85100 whole entry partner): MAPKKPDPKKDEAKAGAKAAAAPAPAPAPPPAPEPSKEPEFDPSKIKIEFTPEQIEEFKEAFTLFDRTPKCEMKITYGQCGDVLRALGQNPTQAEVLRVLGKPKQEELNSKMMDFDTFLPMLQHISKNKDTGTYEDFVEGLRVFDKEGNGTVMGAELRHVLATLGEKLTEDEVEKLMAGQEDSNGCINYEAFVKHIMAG
T1 sequence (Q9BE39 whole entry): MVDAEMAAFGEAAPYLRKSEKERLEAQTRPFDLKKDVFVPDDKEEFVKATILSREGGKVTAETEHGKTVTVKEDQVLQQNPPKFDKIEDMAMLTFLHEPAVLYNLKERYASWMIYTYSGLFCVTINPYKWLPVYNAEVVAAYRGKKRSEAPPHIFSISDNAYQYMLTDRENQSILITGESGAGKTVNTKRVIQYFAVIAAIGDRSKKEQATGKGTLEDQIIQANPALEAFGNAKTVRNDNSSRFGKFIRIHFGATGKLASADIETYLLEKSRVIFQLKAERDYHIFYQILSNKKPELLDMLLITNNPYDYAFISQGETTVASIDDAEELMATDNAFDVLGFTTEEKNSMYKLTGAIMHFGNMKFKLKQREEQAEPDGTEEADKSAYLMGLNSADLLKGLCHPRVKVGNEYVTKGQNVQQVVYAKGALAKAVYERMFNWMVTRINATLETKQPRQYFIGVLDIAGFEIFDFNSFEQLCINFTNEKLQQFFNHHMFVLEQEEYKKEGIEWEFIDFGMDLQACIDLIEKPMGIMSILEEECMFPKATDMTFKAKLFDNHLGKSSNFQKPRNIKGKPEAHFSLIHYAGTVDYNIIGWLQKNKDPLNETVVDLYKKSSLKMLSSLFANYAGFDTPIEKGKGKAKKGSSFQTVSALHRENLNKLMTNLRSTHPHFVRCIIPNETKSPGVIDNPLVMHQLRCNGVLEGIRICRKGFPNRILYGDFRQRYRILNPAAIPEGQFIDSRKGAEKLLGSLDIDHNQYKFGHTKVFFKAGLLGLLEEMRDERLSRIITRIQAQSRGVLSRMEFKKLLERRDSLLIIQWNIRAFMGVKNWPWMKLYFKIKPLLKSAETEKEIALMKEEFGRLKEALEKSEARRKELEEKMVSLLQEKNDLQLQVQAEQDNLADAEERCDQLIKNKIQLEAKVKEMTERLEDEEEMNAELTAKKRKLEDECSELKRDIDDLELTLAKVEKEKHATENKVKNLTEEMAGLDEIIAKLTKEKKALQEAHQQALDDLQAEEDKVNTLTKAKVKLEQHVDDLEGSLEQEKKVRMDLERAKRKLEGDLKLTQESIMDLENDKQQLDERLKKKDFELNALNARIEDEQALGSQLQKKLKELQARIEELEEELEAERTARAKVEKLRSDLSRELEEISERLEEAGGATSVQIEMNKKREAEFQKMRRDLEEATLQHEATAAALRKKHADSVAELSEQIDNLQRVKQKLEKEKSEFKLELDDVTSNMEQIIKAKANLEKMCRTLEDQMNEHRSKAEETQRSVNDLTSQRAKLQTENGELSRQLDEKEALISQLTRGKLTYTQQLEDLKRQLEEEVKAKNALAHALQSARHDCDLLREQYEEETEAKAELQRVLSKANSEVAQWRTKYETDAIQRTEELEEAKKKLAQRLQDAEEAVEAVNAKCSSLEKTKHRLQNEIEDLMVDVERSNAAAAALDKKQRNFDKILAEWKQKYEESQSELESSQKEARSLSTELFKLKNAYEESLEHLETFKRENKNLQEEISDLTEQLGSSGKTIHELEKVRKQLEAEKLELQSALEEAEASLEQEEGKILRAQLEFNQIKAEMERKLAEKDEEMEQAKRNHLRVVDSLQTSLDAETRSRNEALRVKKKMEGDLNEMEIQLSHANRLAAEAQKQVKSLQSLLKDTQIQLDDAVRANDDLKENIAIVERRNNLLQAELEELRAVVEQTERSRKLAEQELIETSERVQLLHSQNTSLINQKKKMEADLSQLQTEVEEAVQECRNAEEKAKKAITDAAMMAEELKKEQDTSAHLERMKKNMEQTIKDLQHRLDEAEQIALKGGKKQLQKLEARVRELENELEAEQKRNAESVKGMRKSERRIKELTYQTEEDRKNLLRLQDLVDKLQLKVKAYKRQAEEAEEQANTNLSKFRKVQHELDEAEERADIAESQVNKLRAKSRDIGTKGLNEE
T1 sequence (P85100 whole entry partner): as the sequence (P85100 whole entry partner) above
T1 sequence (Q3SZE5 whole entry partner): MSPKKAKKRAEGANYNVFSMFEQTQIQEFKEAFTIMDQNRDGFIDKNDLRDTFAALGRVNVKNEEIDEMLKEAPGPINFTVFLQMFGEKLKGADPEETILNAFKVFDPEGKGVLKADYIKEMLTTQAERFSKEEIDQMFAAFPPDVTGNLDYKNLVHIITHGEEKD
Chain of bovine cardiac myofibrils (CMF) (Q9BE39 whole entry): as the sequence (Q9BE39 whole entry) above
Chain of bovine cardiac myofibrils (CMF) (P85100 whole entry partner): as the sequence (P85100 whole entry partner) above
Chain of bovine cardiac myofibrils (CMF) (Q3SZE5 whole entry partner): as the sequence (Q3SZE5 whole entry partner) above

With `CCc1cc2c(=O)n(NC(=S)NC(C)C)cnc2s1` [F10] the “effect on the rate of the fast DRX phase” value [1] was “no effect”, the “Bar graph (Figure 3b, mant-ATP chase)” value ([1]; Figure 3b source data, individual replicate values) was 60.72 and 53.1 and 55.77 and 61 and 84.67 and 56.52 and 70.86 and the “Representative Traces (mant-ATP chase, fluorescence signal over time)” value ([1]; t = 796 s) was 0.1829. The “Representative Traces (mant-ATP chase, fluorescence signal over time)” value ([1]; t = 797 s) was 0.2272, the kfast [1, 6] was 0.05914 s⁻¹ and 0.02268 s⁻¹ and 0.03788 s⁻¹ and 0.03196 s⁻¹ and 0.0963 s⁻¹ and 0.1619 s⁻¹ and the kslow [1, 6] was 0.004733 s⁻¹ and 0.003729 s⁻¹ and 0.003941 s⁻¹ and 0.001622 s⁻¹ and 0.001835 s⁻¹ and 0.001574 s⁻¹. The slow phase [1, 6] was 53.1% and 55.77% and 61% and 84.67% and 56.52% and 70.86%, the kslow ([1]; control 0.0046 ± 0.0007) was 0.0027 ± 0.0005 s⁻¹ and the “Slow Phase [%] (SRX amplitude)” value ([1]; control 22.9 ± 2.8) was 63.2 ± 4.2% and ~63%. The kfast ([1]; control […]) was 0.0784 ± 0.0208 s⁻¹, the “biological activity in primary screen” value [2] was “without, however, any biological activity” and the “biological activity in primary screen” value [3] was “without, however, any biological activity”. The kslow ([4]; 2 μmol L^-1 Mavacamten or 20 μmol L^-1 F10, control 0.0058 ± 0.0010) was 0.0014 ± 0.0002 s⁻¹, the kfast [4, 7] was 0.05055 s⁻¹ and 0.0447 s⁻¹ and 0.0368 s⁻¹ and 0.05306 s⁻¹ and 0.06378 s⁻¹ and 0.02378 s⁻¹ and the kslow [4, 7] was 0.0006967 s⁻¹ and 0.00183 s⁻¹ and 0.001814 s⁻¹ and 0.000778 s⁻¹ and 0.001483 s⁻¹ and 0.001764 s⁻¹. The slow phase [4, 7] was 77.15% and 78.62% and 63.91% and 49.91% and 65.48% and 83.8%, the “Representative Traces, normalised fluorescence” value ([4]; t 396 s) was 0.3381 and the “Representative Traces, normalised fluorescence” value ([4]; t 397 s) was 0.3913. For the same compound, the “Representative Traces, normalised fluorescence” value ([4]; t 398 s) was 0.3527, the “Representative Traces, normalised fluorescence” value ([4]; t 399 s) was 0.3731 and the “Representative Traces, normalised fluorescence” value ([4]; t 400 s) was 0.3893. The “Representative Traces, normalised fluorescence” value ([4]; t 401 s) was 0.3649, the “Representative Traces, normalised fluorescence” value ([4]; t 402 s) was 0.346 and the “Representative Traces, normalised fluorescence” value ([4]; t 403 s) was 0.3664. For the same compound, the “Representative Traces, normalised fluorescence” value ([4]; t 404 s) was 0.3754, the “Representative Traces, normalised fluorescence” value ([4]; t 405 s) was 0.395 and the “Representative Traces, normalised fluorescence” value ([4]; t 406 s) was 0.3542. For the same compound, the “Representative Traces, normalised fluorescence” value ([4]; t 407 s) was 0.3529, the “Representative Traces, normalised fluorescence” value ([4]; t 408 s) was 0.371 and the “Representative Traces, normalised fluorescence” value ([4]; t 409 s) was 0.3805. The “Representative Traces, normalised fluorescence” value ([4]; t 410 s) was 0.3829, the “Representative Traces, normalised fluorescence” value ([4]; t 411 s) was 0.3594 and the “Representative Traces, normalised fluorescence” value ([4]; t 412 s) was 0.3318. For the same compound, the “Representative Traces, normalised fluorescence” value ([4]; t 413 s) was 0.3454, the “Representative Traces, normalised fluorescence” value ([4]; t 414 s) was 0.3732 and the “Representative Traces, normalised fluorescence” value ([4]; t 415 s) was 0.3239. For the same compound, the “Representative Traces, normalised fluorescence” value ([4]; t 416 s) was 0.3536, the “Representative Traces, normalised fluorescence” value ([4]; t 417 s) was 0.3763 and the “Representative Traces, normalised fluorescence” value ([4]; t 418 s) was 0.4062. The “Representative Traces, normalised fluorescence” value ([4]; t 419 s) was 0.3409, the “Representative Traces, normalised fluorescence” value ([4]; t 420 s) was 0.3417 and the “Representative Traces, normalised fluorescence” value ([4]; t 421 s) was 0.3218. For the same compound, the “Representative Traces, normalised fluorescence” value ([4]; t 422 s) was 0.3761, the “Representative Traces, normalised fluorescence” value ([4]; t 423 s) was 0.3809 and the “Representative Traces, normalised fluorescence” value ([4]; t 424 s) was 0.3886. For the same compound, the “Representative Traces, normalised fluorescence” value ([4]; t 425 s) was 0.4176, the “Representative Traces, normalised fluorescence” value ([4]; t 426 s) was 0.3716 and the “Representative Traces, normalised fluorescence” value ([4]; t 427 s) was 0.348. The “Representative Traces, normalised fluorescence” value ([4]; t 428 s) was 0.3822, the “Representative Traces, normalised fluorescence” value ([4]; t 429 s) was 0.3572 and the “Representative Traces, normalised fluorescence” value ([4]; t 430 s) was 0.3286. The “Representative Traces, normalised fluorescence” value ([4]; t 431 s) was 0.4152, the “Representative Traces, normalised fluorescence” value ([4]; t 432 s) was 0.3207 and the “Representative Traces, normalised fluorescence” value ([4]; t 433 s) was 0.376. For the same compound, the “Representative Traces, normalised fluorescence” value ([4]; t 434 s) was 0.351, the “Representative Traces, normalised fluorescence” value ([4]; t 435 s) was 0.3814 and the “Representative Traces, normalised fluorescence” value ([4]; t 436 s) was 0.3747. For the same compound, the “Representative Traces, normalised fluorescence” value ([4]; t 437 s) was 0.339, the “Representative Traces, normalised fluorescence” value ([4]; t 438 s) was 0.3394 and the “Representative Traces, normalised fluorescence” value ([4]; t 439 s) was 0.2828. The “Representative Traces, normalised fluorescence” value ([4]; t 440 s) was 0.3588, the “Representative Traces, normalised fluorescence” value ([4]; t 441 s) was 0.3824 and the “Representative Traces, normalised fluorescence” value ([4]; t 442 s) was 0.3473. For the same compound, the “Representative Traces, normalised fluorescence” value ([4]; t 443 s) was 0.3776, the “Representative Traces, normalised fluorescence” value ([4]; t 444 s) was 0.2942 and the “Representative Traces, normalised fluorescence” value ([4]; t 445 s) was 0.3451. For the same compound, the “Representative Traces, normalised fluorescence” value ([4]; t 446 s) was 0.3599, the “Representative Traces, normalised fluorescence” value ([4]; t 447 s) was 0.3632 and the “Representative Traces, normalised fluorescence” value ([4]; t 448 s) was 0.3962. For the same compound, the “Representative Traces, normalised fluorescence” value ([4]; t 449 s) was 0.3522, the “Representative Traces, normalised fluorescence” value ([4]; t 450 s) was 0.334 and the “Representative Traces, normalised fluorescence” value ([4]; t 451 s) was 0.3312. The “Representative Traces, normalised fluorescence” value ([4]; t 452 s) was 0.3355, the “Representative Traces, normalised fluorescence” value ([4]; t 453 s) was 0.3202 and the “Representative Traces, normalised fluorescence” value ([4]; t 454 s) was 0.3011. For the same compound, the “Representative Traces, normalised fluorescence” value ([4]; t 455 s) was 0.3492, the “Representative Traces, normalised fluorescence” value ([4]; t 456 s) was 0.2942 and the “Representative Traces, normalised fluorescence” value ([4]; t 457 s) was 0.3901. For the same compound, the “Representative Traces, normalised fluorescence” value ([4]; t 458 s) was 0.3305, the “Representative Traces, normalised fluorescence” value ([4]; t 459 s) was 0.3712 and the “Representative Traces, normalised fluorescence” value ([4]; t 460 s) was 0.3492. For the same compound, the “Representative Traces, normalised fluorescence” value ([4]; t 461 s) was 0.3691, the “Representative Traces, normalised fluorescence” value ([4]; t 462 s) was 0.3499 and the “Representative Traces, normalised fluorescence” value ([4]; t 463 s) was 0.3959. The “Representative Traces, normalised fluorescence” value ([4]; t 464 s) was 0.3352, the “Representative Traces, normalised fluorescence” value ([4]; t 465 s) was 0.2964 and the “Representative Traces, normalised fluorescence” value ([4]; t 466 s) was 0.3332. The “Representative Traces, normalised fluorescence” value ([4]; t 467 s) was 0.3397, the “Representative Traces, normalised fluorescence” value ([4]; t 468 s) was 0.2957 and the “Representative Traces, normalised fluorescence” value ([4]; t 469 s) was 0.3164. The “Representative Traces, normalised fluorescence” value ([4]; t 470 s) was 0.3318, the “Representative Traces, normalised fluorescence” value ([4]; t 471 s) was 0.303 and the “Representative Traces, normalised fluorescence” value ([4]; t 472 s) was 0.2843. For the same compound, the “Representative Traces, normalised fluorescence” value ([4]; t 473 s) was 0.3488, the “Representative Traces, normalised fluorescence” value ([4]; t 474 s) was 0.3514 and the “Representative Traces, normalised fluorescence” value ([4]; t 475 s) was 0.3348. For the same compound, the “Representative Traces, normalised fluorescence” value ([4]; t 476 s) was 0.2621, the “Representative Traces, normalised fluorescence” value ([4]; t 477 s) was 0.3016 and the “Representative Traces, normalised fluorescence” value ([4]; t 478 s) was 0.2808. The “Representative Traces, normalised fluorescence” value ([4]; t 479 s) was 0.2939, the “Representative Traces, normalised fluorescence” value ([4]; t 480 s) was 0.3383 and the “Representative Traces, normalised fluorescence” value ([4]; t 481 s) was 0.3502. For the same compound, the “Representative Traces, normalised fluorescence” value ([4]; t 482 s) was 0.3436, the “Representative Traces, normalised fluorescence” value ([4]; t 483 s) was 0.4051 and the “Representative Traces, normalised fluorescence” value ([4]; t 484 s) was 0.3367. For the same compound, the “Representative Traces, normalised fluorescence” value ([4]; t 485 s) was 0.376, the “Representative Traces, normalised fluorescence” value ([4]; t 486 s) was 0.3528 and the “Representative Traces, normalised fluorescence” value ([4]; t 487 s) was 0.3472. The “Representative Traces, normalised fluorescence” value ([4]; t 488 s) was 0.3853, the “Representative Traces, normalised fluorescence” value ([4]; t 489 s) was 0.3935 and the “Representative Traces, normalised fluorescence” value ([4]; t 490 s) was 0.3358. The “Representative Traces, normalised fluorescence” value ([4]; t 491 s) was 0.3169, the “Representative Traces, normalised fluorescence” value ([4]; t 492 s) was 0.3123 and the “Representative Traces, normalised fluorescence” value ([4]; t 493 s) was 0.2845. For the same compound, the “Representative Traces, normalised fluorescence” value ([4]; t 494 s) was 0.2849, the “Representative Traces, normalised fluorescence” value ([4]; t 495 s) was 0.3259 and the “Representative Traces (mant-ATP chase, normalised signal)” value ([4]; t = 796 s) was 0.1783. The “Representative Traces (mant-ATP chase, normalised signal)” value ([4]; t = 797 s) was 0.1159, the IC50 [5] was about 24 µM and the “maximal inhibition of bovine CMF ATPase activity” value ([5]; suboptimal Ca^2+-activation, about 70% maximal activation) was “about 60%”.
